Test results: US12337003B2, “Pharmaceutical compositions for combination therapy” (Intercept Pharmaceuticals, Inc., priority 2015, dated 2025)

Columns and labels:
[1] = tested on: APOE*3Leiden.CETP transgenic mice on high fat diet; assay: Diet induced NASH in APOE*3Leiden.CETP mice, hepatic inflammation score; assay type: in vivo; conditions: for Inflammation (# of inflammatory cell foci): in high fat diet
Procedure: (§1) This experiment was performed to evaluate the effects of OCA and fenofibrate, alone or in combination, on the development of diet induced NASH and liver fibrosis in APOE*3Leiden.CETP transgenic mice. Hepatic gene expression profiling and subsequent pathway analysis were performed to determine whether the combination regulates novel genes not regulated by either monotherapy treatment, and/or more strongly regulates genes also impacted by the monotherapy.
Male APOE*3Leiden.CETP transgenic mice (9-21 weeks old) were obtained and housed 2-5 mice per cage. The mice were fed a high fat diet containing 24% lard and 1% (w/w) cholesterol. The run in period was 15 weeks on the high fat diet. At week 16, mice were matched based on age, body weight, plasma cholesterol and triglycerides after 4 h fasting.
• Mice (n=15) were fed a high fat diet during the run in weeks 0 to 14. Group 2: HFC control group • Mice (n=15) were fed a high fat diet from weeks 0 to 24. Group 3: HFC+OCA • Mice (n=15) were fed a high fat diet supplemented with OCA at a dose of 10 mg/kg once daily from week 16 to 24. Group 4: HFC+low dose fenofibrate • Mice (n=15) were fed a high fat diet supplemented with fenofibrate at a dose of 10 mg/kg once daily from week 16 to 24. Group 5: HFC+high dose fenofibrate • Mice (n=15) were fed a high fat diet supplemented with fenofibrate at a dose of 40 mg/kg once daily from week 16 to 24. Group 6: HFC+OCA+low dose fenofibrate • Mice (n=15) were fed a high fat diet supplemented with OCA at a dose of 10 mg/kg once daily and fenofibrate at a dose of 10 mg/kg once daily from week 16 to 24. Group 7: HFC+OCA+high dose fenofibrate • Mice (n=15) were fed a high fat diet supplemented with OCA at a dose of 10 mg/kg once daily and fenofibrate at a dose of 40 mg/kg once daily from week 16 to 24. Group 8: Chow control group • Mice (n=8) were feed chow from week 0 to 24. Study Design
(§2) Mice were fed a high fat chow (HFC) diet for […]. After 15 weeks on the HFC diet, HFC mice were matched into 7 groups based on age, body weight, plasma cholesterol and triglycerides after 4 h fasting. Mice were treated with of OCA and fenofibrate, alone or in combination beginning at week 15 and sacrificed at week 25 in an unfasted state. One week before sacrifice, mice were labeled with D20, by i.p. injection of a bolus of D20 and subsequent addition of 4% D20 to the drinking water. Plasma (EDTA) was obtained by heart puncture and stored at −70° C. The liver was weighed and 4 pieces of liver were isolated: 1 piece (medial lobe) was fixed in 10% formalin (for NASH and fibrosis histology) and 3 pieces (sinister lobe) were snap-frozen in liquid N2 and stored individually at −70° C.
Inflammation is a key feature of NASH. Inflammation was categorized according to the procedure by Liang et al., PlosOne 2014 Dec. 9(12) and scored by quantitatively analyzing the number of inflammatory cells aggregates. In particular, the level of inflammation was evaluated by counting the number of inflammatory foci per field using a 100× magnification (view size of 3.1 mm2; average of five different fields).

[2] = tested on: leukocyte extravasation signaling; assay: Hepatic gene expression profiling (RNA sequencing, pathway analysis) in APOE*3Leiden.CETP mice; assay type: in vivo
Procedure: as §1, §2
Nucleic acid extraction was performed as described previously in detail (Verschuren et al., 2014). Briefly, total RNA was extracted from individual liver samples using glass beads and RNAzol (Campro Scientific, Veenendaal, The Netherlands). RNA concentration and quality was determined using the Fragment Analyzer (Advanced Analytical Technologies, USA) and the RNA 6000 Nano Lab-on-a-Chip kit and a Bioanalyzer 2100 (Agilent Technologies, Amstelveen, The Netherlands). All samples met the quality requirements and were used in the RNA sequencing procedure.
The NEBNext Ultra Directional RNA library Prep Kit for Illumina was used to process the samples. The sample preparation was performed according to the protocol “NEBNext Ultra Directional RNA Library Prep Kit for Illumina” (NEB #E7420S/L). Briefly, mRNA was isolated from total RNA using oligo-dT magnetic beads. After fragmentation of the mRNA, a cDNA synthesis was performed. This was used for ligation of sequencing adapters and PCR amplification of the resulting product. The quality and yield after sample preparation was measured with the Fragment Analyzer (Advanced Analytical Technologies, USA). The size of the resulting products was consistent with the expected size distribution (a broad peak between 300-500 bp).
Clustering and DNA sequencing using the Illumina […] was performed according manufacturer's protocols. Data was generated using single-end read sequencing protocol obtaining approx. 15 million reads per sample and 75 bp per read. Image analysis, base calling, and quality check was performed with the Illumina data analysis pipeline RTA v2.4.11 to generate the raw data (*.fastq-files).
The reads were mapped to the reference sequence Mus musculus GRCm38.p3 using a short read aligner based on Burrows-Wheeler Transform. The default mismatch rate of 2% (3 mismatches in a read of 150 bases) was used. Based on the mapped read locations in the alignment files (*.bam-files) the frequency of how often a read was mapped on a transcript was determined. The counts were saved to count-files, which served as input for downstream mRNA-seq differential expression analysis. The read counts were loaded into the DESeq package, a statistical package within the R platform. […]

[3] = tested on: fibrosis induced by common bile duct ligation in mice; assay: Bile duct ligation (BDL) model, Sirius-red staining of liver sections; assay type: in vivo, C57BL/6 mice; conditions: mean ± SD, OCA 5 mg/kg and/or atorvastatin 10 mg/kg orally once daily day 0 to day 6
Procedure: This experiment was performed to evaluate the effects of OCA and atorvastatin alone, and in combination, on fibrosis induced by common bile duct ligation in mice.
Male C57BL/6 mice (6 weeks of age) were obtained from Japan SLC. The animals were maintained in a specific pathogen free facility under controlled conditions of temperature (23±2° C.), humidity (45±10%), lighting (12-hour artificial light and dark cycles; light from 8:00 to 20:00), and air exchange (air exchange rate: more than 40 times/hour). A high pressure (20±4 Pa) was maintained in the experimental room to prevent contamination of the facility. The animals were housed in KN-600 (Natsume Seisakusho, Japan) with a maximum of 6 mice per cage. […]
Viability, clinical signs and behavior were monitored daily. Body weight was recorded daily during the treatment period. Food consumption was measured twice weekly per cage during the treatment period. […]
To visualize collagen deposition, Bouin's-fixed left lateral liver sections were stained using picro-Sirius red solution (Waldeck, Germany). For quantitative analysis of the fibrosis area, bright field images of Sirius red-stained sections were captured around the central vein using a digital camera (DFC295; Leica, Germany) at 100-fold magnification, and the positive areas in 5 fields/section were measured using ImageJ software (National Institute of Health, USA). […]

[4] = high dose fenofibrate 40 mg/kg, alone or with OCA 10 mg/kg

SMILES: CC(C)OC(=O)C(C)(C)Oc1ccc(C(=O)c2ccc(Cl)cc2)cc1 [fenofibrate]
- Inflammation (# of inflammatory cell foci) ([1]; OCA 10 mg/kg and/or low dose fenofibrate 10 mg/kg): 22.0 ± 15.6
- reduction in inflammation [1, 4]: −74%
- Inflammation (# of inflammatory cell foci) [1, 4]: 7.1 ± 5.9
- number of uniquely regulated genes ([2]; Venn diagram, OCA 10 mg/kg, fenofibrate 10 mg/kg, combination): 92
- enrichment analysis of canonical (inflammatory) pathways ([2]; liver mRNA, OCA 10 mg/kg and/or low dose fenofibrate vs HFC): no effect

SMILES: CC(C)c1c(C(=O)Nc2ccccc2)c(-c2ccccc2)c(-c2ccc(F)cc2)n1CC[C@@H](O)C[C@@H](O)CC(=O)O [ATO, atorvastatin, reference compound]
- Sirius red-positive area (%) [3]: 2.31 ± 0.63%
